Test results taken from paper PMC12926040, “ADP-ribose is a competitive inhibitor of methanol dehydrogenases from Bacillus methanolicus” (The Journal of Biological Chemistry, 2025).
Values belong to the molecule of their own block, whether it stands above or below them.

Tests used:
BmMDH2 [1] = target: T1, BmMDH2 (Bacillus methanolicus, UniProt I3E949); assay: Effects of NAM, AMP and ADPR (0.3 mM each) on BmMDH2 activity; type: biochemical, Bacillus methanolicus MGA3; details: 3 mM NAD+, 40 mM ethanol
BmMDH2 [2] = target: T1, BmMDH2; assay: BmMDH2 activation by ACT, NADH formation monitored at 340 nm; type: biochemical; details: final NAD+ raised by 2.9 mM after […]; 42 μM/min before; 50 nM ACT
Description: Figure 1 ACT-catalyzed conversion of NAD^+ into a compound that activates BmMDH2.A, effect of ACT concentration on BmMDH2 activation. The formation of NADH was monitored at 340 nm, with 100 nM BmMDH2 in glycine-NaOH buffer (pH 9.5) containing 0 to 125 nM ACT, 3 mM NAD^+, 20 mM ethanol, 5 mM MgCl2 and 0.5 mM MnCl2. Data for the initial 10 min are highlighted in the right panel. Data were from a single experiment. B, effects of the following treatments on BmMDH2 activation: preincubated ACT & NAD^+ (red), preincubated ACT & BmMDH2 (blue), ultrafiltrate of preincubated ACT & NAD^+ (green), and ultrafiltrate of ACT (purple) or NAD^+ (cyan) solutions. Preincubations were performed in glycine-NaOH buffer (pH 9.5) with 5 mM MgCl2 and 0.5 mM MnCl2 at 25 °C for 30 min. Ethanol, BmMDH2, or NAD^+ was subsequently added to achieve final concentrations of 10 nM ACT, 20 mM ethanol, 3 mM NAD^+, and 200 nM BmMDH2. For ultrafiltration, preincubated samples were filtered (10 kDa cutoff, Millipore), and the flowthrough was used for activation assays. Data represent means ± SD (n = 3). C, effect of NAD^+ concentration on BmMDH2 activation. Activity was measured using 100 nM BmMDH2 in glycine-NaOH buffer (pH 9.5) with 50 nM ACT, 0 to 20 mM NAD^+, 5 mM MgCl2, and 0.5 mM MnCl2. Data were from a single experiment. D, time-course of BmMDH2 activation. Reaction were performed in 200 μl glycine-NaOH buffer (100 mM, pH 9.5) with 5 mM MgCl2, 0.5 mM MnCl2, 0.25 mM NAD^+, 0.1 μM BmMDH2, 20 mM ethanol, and 50 nM ACT. Fresh NAD^+ (4 μl, 150 mM) was added twice during the reaction. Data were from a single experiment. E, catalytic rates of BmMDH2 were calculated from the slopes of the data in panel D. Additional replicates of the experiments shown in panels A, C, and D are provided in Fig. S4. […]
The catalytic processes of MDHs were monitored by measuring NADH absorbance at 340 nm using a Tecan SPARK UV-Vis plate reader (Tecan Austria GmbH) at 25 °C. […]

[3] = Hydrolysis of NAD+ in glycine-NaOH buffer pH 9.5 at 25 °C (HPLC); type: physicochemical
Description: NAD^+ (3 mM) was incubated with (black) or without (blue) 10 nM ACT in glycine-NaOH buffer (pH 9.5, 5 mM MgCl2) at 25 °C for 60 min. Unincubated NAD^+ (red) served as a control. Compounds were identified via LC-MS. […] Data are presented as means ± SDs (n = 3). C, degradation of ACT-treated NAD^+ in glycine-NaOH buffer (pH 9.5) at 25 °C. ACT was removed by ultrafiltration before analysis. D, ADPR content in NAD^+ from different suppliers. […] E, schematic of the reactions during ACT incubation with NAD^+.
Fig. S5 The hydrolysis rate of NAD^+ at 25 °C. NAD^+ was dissolved in glycine-NaOH buffer (pH 9.5, 100 mM) at a concentration of 3 mM and incubated at 25 °C. Samples were withdrawn at various time intervals and analyzed by HPLC. The residual NAD^+ was quantified according to the standard curves of NAD^+.

[4] = target: NAD-dependent methanol dehydrogenase 2 from Bacillus methanolicus MGA3 (BmMDH2) (Bacillus methanolicus MGA3); assay: crystal structure; BmMDH2 apo (2.8 Å), with ADPR (2.6 Å) and with NAD+ (2.6 Å); sitting-drop vapor diffusion at 18 °C, 30 mg/ml protein, Bis-Tris propane pH 6.0-7.0, PEG 3350
[5] = target: activator protein ACT from Bacillus methanolicus MGA3 (Nudix hydrolase, ADPRase) (Bacillus methanolicus MGA3) (UniProt Q8KP10); assay: crystal structure; apo-ACT in two conformations of loop 132-146 (2.0 and 2.4 Å); 90 mg/ml protein in 20 mM Tris-HCl pH 7.5, 150 mM NaCl; reservoir MES pH 5.2 with PEG 400, or MMT pH 5.0 with PEG 1500
[6] = test system: NC(=O)c1ccc[n+]([C@@H]2O[C@H](COP(=O)(O)OP(=O)(O)OC[C@H]3O[C@@H](n4cnc5c(N)ncnc54)[C@H](O)[C@@H]3O)[C@@H](O)[C@H]2O)c1; assay: purified protein, by the assay type; details: other: in the presence of 10 nM ACT, 40 mM ethanol, pH 8.0, 25.0 °C
BmMDH2 [7] = target: T1, BmMDH2; assay: Inhibition kinetics of ADPR on formaldehyde reduction (NADH fluorescence); type: biochemical, Bacillus methanolicus MGA3; details: read-out: KM of BmMDH2, without ADPR, 0 to 150 μM NADH
Description: Data are shown as means ± SDs (n = 3). Apparent KM values for NAD^+ were determined in the presence of 10 nM ACT (Fig. S6). […] Data are presented as means ± SDs (n = 3). […] The row labels are given as the substance labels. / Panel D: no substance label is printed with the KD and thermodynamic values.

[8] = substrate: NC(=O)c1ccc[n+]([C@@H]2O[C@H](COP(=O)(O)OP(=O)(O)OC[C@H]3O[C@@H](n4cnc5c(N)ncnc54)[C@H](O)[C@@H]3O)[C@@H](O)[C@H]2O)c1; assay: Kinetic assay of MDHs, ethanol dehydrogenation, NAD+ varied; type: biochemical, Bacillus methanolicus MGA3; details: other: in the presence of 10 nM ACT, 40 mM ethanol, pH 8.0, 25.0 °C
Description: NAD^+ and NADH used for the kinetic assays were pretreated with ACT as described above. The reaction mixtures for the ethanol dehydrogenation contained 40 mM ethanol, adequate MDHs, and various concentrations of NAD^+ (ranging from 0 to 48 mM). Enzymatic catalytic rates were determined by monitoring the increase in NADH absorbance at 340 nm. To determine the kinetics of BmMDH2 for the reverse direction (formaldehyde reduction), the reaction mixtures contained 1 mM DTT, 100 nM BmMDH2, 20 mM formaldehyde, 0.5 mM MnCl2, and 0 to 150 μM of NADH. The catalytic rates of formaldehyde reduction were measured by monitoring the decrease of NADH fluorescence, using excitation and emission wavelengths of 340 nm and 535 nm, respectively.
The kinetic assays were conducted in 200 μL Tris-HCl buffer (100 mM, pH 8.0) at 25 °C. The reaction mixture contained 40 mM ethanol, 0.5 mM MnCl2, 10 nM ACT, 5 mM MgCl2, adequate MDHs (BmMDH1: 500 nM; BmMDH2: 100 nM; BmMDH2S101G: 100 nM; CnMDH2 CT4: 100 nM), and 0 to 48 mM of NAD^+. […] Data are means ± SDs of three measurements.

[9] = substrate: NC(=O)c1ccc[n+]([C@@H]2O[C@H](COP(=O)(O)OP(=O)(O)OC[C@H]3O[C@@H](n4cnc5c(N)ncnc54)[C@H](O)[C@@H]3O)[C@@H](O)[C@H]2O)c1; assay: as above; type: biochemical, Bacillus methanolicus MGA3; details: other: in the presence of 10 nM ACT, 40 mM ethanol, pH 8.0, 25.0 °C; remark: listed apart in the source

Molecule: Nc1ncnc2c1ncn2[C@@H]1O[C@H](COP(=O)(O)O)[C@@H](O)[C@H]1O [AMP]
effect on BmMDH2 activity (in words) (BmMDH2 [1]): Neither AMP nor NAM significantly influenced activation

catalytic rate of activated BmMDH2 after additional NAD+ dose (BmMDH2 [2]): 4.8 µM/min
half-life at 3 mM ([3]; glycine-NaOH buffer, glycine-NaOH pH 9.5, 25 °C, read-out: t1/2 of NAD+ hydrolysis (converted)): 64 h
rate constant for NAD+ hydrolysis ([3]; glycine-NaOH pH 9.5, 25 °C): 0.011 h⁻¹
increase of ADPR and NAM on incubation of NAD+ ([3]; glycine-NaOH pH 9.5, 60 min): about 40%
Molecule: NC(=O)c1ccc[n+]([C@@H]2O[C@H](COP(=O)(O)OP(=O)(O)OC[C@H]3O[C@@H](n4cnc5c(N)ncnc54)[C@H](O)[C@@H]3O)[C@@H](O)[C@H]2O)c1 [NAD^+]

stoichiometry N [4]: 10
Molecule: NAD-dependent methanol dehydrogenase 2 from Bacillus methanolicus MGA3 (BmMDH2) (enzyme)

stoichiometry N [5]: 2
Molecule: activator protein ACT from Bacillus methanolicus MGA3 (Nudix hydrolase, ADPRase) (from UniProt Q8KP10 1-183) (enzyme)

Molecule: BmMDH2S101G (Bacillus methanolicus MGA3; S101G)
Km [6]: 6200 ± 800 µM

Molecule: NC(=O)C1=CN([C@@H]2O[C@H](COP(=O)(O)OP(=O)(O)OC[C@H]3O[C@@H](n4cnc5c(N)ncnc54)[C@H](O)[C@@H]3O)[C@@H](O)[C@H]2O)C=CC1 [NADH]
Km (BmMDH2 [7]): 6.7 ± 1.7 µM

Molecule: NC(=O)c1cccnc1 [NAM, nicotinamide]
effect on BmMDH2 activity (in words) (BmMDH2 [1]): Neither AMP nor NAM significantly influenced activation

B1: BmMDH1 (Bacillus methanolicus MGA3) (protein)
chain: MTTNFFIPPASVIGRGAVKEVGTRLKQIGAKKALIVTDAFLHSTGLSEEVAKNIREAGVDVAIFPKAQPDPADTQVHEGVDVFKQENCDSLVSIGGGSSHDTAKAIGLVAANGGRINDYQGVNSVEKPVVPVVAITTTAGTGSETTSLAVITDSARKVKMPVIDEKITPTVAIVDPELMVKKPAGLTIATGMDALSHAIEAYVAKGATPVTDAFAIQAMKLINEYLPKAVANGEDIEAREKMAYAQYMAGVAFNNGGLGLVHSISHQVGGVYKLQHGICNSVNMPHVCAFNLIAKTERFAHIAELLGENVAGLSTAAAAERAIVALERINKSFGIPSGYAEMGVKEEDIELLAKNAYEDVCTQSNPRVPTVQDIAQIIKNAM
Km [8]: 2100 ± 1000 µM

B2: BmMDH2 (Bacillus methanolicus MGA3) (protein)
chain: MTNTQSAFFMPSVNLFGAGSVNEVGTRLADLGVKKALLVTDAGLHGLGLSEKISSIIRAAGVEVSIFPKAEPNPTDKNVAEGLEAYNAENCDSIVTLGGGSSHDAGKAIALVAANGGKIHDYEGVDVSKEPMVPLIAINTTAGTGSELTKFTIITDTERKVKMAIVDKHVTPTLSINDPELMVGMPPSLTAATGLDALTHAIEAYVSTGATPITDALAIQAIKIISKYLPRAVANGKDIEAREQMAFAQSLAGMAFNNAGLGYVHAIAHQLGGFYNFPHGVCNAVLLPYVCRFNLISKVERYAEIAAFLGENVDGLSTYDAAEKAIKAIERMAKDLNIPKGFKELGAKEEDIETLAKNAMKDACALTNPRKPKLEEVIQIIKNAM
Km [9]: 720 ± 60 µM
